From patent publication US6180621A, “Method and treatment using 1-methylcarbapenem derivatives as an anti-helicobacter pylori agent” (Sankyo Company, Limited, priority 1996, dated 2001)
≈ marks a conversion by molar mass, not a printed value. Like-named read-outs stand apart in the source and are kept apart here.

Columns and labels:
[1] = system: helicobacter pylori; details: background, reported; cited from earlier work
[2] = system: helicobacter pylori; assay: In vitro activity against helicobacter pylori (MIC), agar plate; format: cell-based; details: for MIC: Helicobacter pylori, 72 h, read-out: minimum inhibitory concentration (MIC)
Method: In vitro activity against helicobacter pylon (MIC; μg/ml)
Helicobacter pylori (H. pylori) from storage was smeared on a 7%-equine-defibrinated-blood-added brain heart infusion agar (BHIA) plate and cultured at 37° C. for 72 hours under microaerophilic and wet conditions. The colonies thus grown were picked and suspended in physiological saline to prepare a culture solution of 10^8 CFU/ml (viable microbe cell number per ml). The resulting culture solution was diluted to 10 to 50-fold with physiological saline, and one spot (about 10 μl) of the solution was inoculated on each of medicament-containing and medicament-free BHIA plates. Each of the plates was cultured at 37° C. for 72 hours under microaerophilic and wet conditions and the minimum inhibitory concentration (MIC: μg/ml) at which the growth of the colonies was inhibited was measured.

[3] = system: helicobacter pylori 9470 strain; assay: Therapeutic effects for nude mouse infected with helicobacter pylori (viable microbe cell number, CFU/stomach); format: in vivo; details: oral, once a day for 4 days, nude mice
Method: Therapeutic effects for nude mouse infected with helicobacter pylon Bacteria (helicobacter pylori 9470 strain) used for the test, which were cultured for 48 hours in a 2%-fetal-calf-serum-added brucella broth, were centrifuged. After removal of the supernatant, the residue was re-suspended in a 1/10 amount of a brucella broth. The resulting suspended solution was orally administered to each of three to five nude mice in an amount of […] per mouse. 10 days after the infection, administration of a medicament was started. A 0.5% tragacanth suspension of a medicament was orally administered for 4 days through an oral catheter at a dose of 0.3 ml/mouse, once a day. On the day after the final administration, the stomach was extirpated, homogenized and then diluted. […] The significant difference of Medicament B(2), Medicament C(1) or C(2) is p<0.01 (vs the control group).

[4] = H. pylori strain 9470, 37° C., 72 hours, microaerophilic, BHIA plate
[5] = H. pylori strain 9472, 37° C., 72 hours, microaerophilic, BHIA plate
[6] = H. pylori strain 9474, 37° C., 72 hours, microaerophilic, BHIA plate
[7] = H. pylori strain 9824, 37° C., 72 hours, microaerophilic, BHIA plate
[8] = H. pylori strain 9828, 37° C., 72 hours, microaerophilic, BHIA plate

MIC [2, 4] | MIC [2, 5] | MIC [2, 7] | MIC [2, 8] | Compound | effect against helicobacter pylori [1] | other results
12 ng/mL (≈ 0.0328 µM) | 25 ng/mL (≈ 0.0684 µM) | 390 ng/mL (≈ 1.07 µM) | 200 ng/mL (≈ 0.547 µM) | CC1(C)S[C@@H]2[C@H](NC(=O)[C@H](N)c3ccc(O)cc3)C(=O)N2[C@H]1C(=O)O [AMPC, amoxicillin] | effective against helicobacter pylori | MIC [2, 6]: 50 ng/mL (≈ 0.137 µM)
– | – | – | – | C[C@@H](O)[C@H]1C(=O)N2C(C(=O)[O-])=C(S[C@H]3CNC(=O)C3)[C@H](C)[C@H]12.[Na+] [Compound 1, sodium (1R,5S,6S)-2-[(4R)-2-oxo-4pyrrolidinylthio]-6-[(1R)-1-hydroxyethyl]-1-methyl-1-carbapen-2-em-3-carboxylate] | – | minimum inhibitory concentration (MIC) [2, 5]: ≤ 6 ng/mL; minimum inhibitory concentration (MIC) [2, 6]: ≤ 6 ng/mL; minimum inhibitory concentration (MIC) [2, 7]: ≤ 6 ng/mL; minimum inhibitory concentration (MIC) [2, 8]: ≤ 6 ng/mL; MIC [2]: ≤ 6 ng/mL
– | – | – | – | CN(C)C1C(=O)C(C(N)=O)=C(O)C2(O)C(=O)C3=C(O)c4c(O)cccc4C(C)(O)C3CC12 (stereo not shown) [tetracycline] | effective against helicobacter pylori | –
6 ng/mL (≈ 0.00802 µM) | 6 ng/mL (≈ 0.00802 µM) | 1500 ng/mL (≈ 2.01 µM) | 6250 ng/mL (≈ 8.36 µM) | CC[C@H]1OC(=O)[C@H](C)[C@@H](O[C@H]2C[C@@](C)(OC)[C@@H](O)[C@H](C)O2)[C@H](C)[C@@H](O[C@@H]2O[C@H](C)C[C@H](N(C)C)[C@H]2O)[C@](C)(OC)C[C@@H](C)C(=O)[C@H](C)[C@@H](O)[C@]1(C)O [CAM, clarithromycin] | effective against helicobacter pylori | significant difference (p) vs the control group, viable microbe cell number (CFU/stomach) ([3]; 10 mg/kg): < 0.01; MIC [2, 6]: 25 ng/mL (≈ 0.0334 µM)
– | – | – | – | C[C@@H](O)[C@H]1C(=O)N2C(C(=O)[O-])=C(S[C@H]3CC(=O)N(C)C3)[C@H](C)[C@H]12.[Na+] [Compound 3, sodium (1R,5S,6S)-2-[(4S)-1-methyl-2-oxo-4-pyrrolidinylthio]-6-[(1R)-1-hydroxyethyl]-1-methyl-1-carbapen-2-em-3-carboxylate] | – | minimum inhibitory concentration (MIC) [2, 5]: ≤ 6 ng/mL; minimum inhibitory concentration (MIC) [2, 7]: ≤ 6 ng/mL; minimum inhibitory concentration (MIC) [2, 8]: ≤ 6 ng/mL; MIC [2]: ≤ 6 ng/mL
≤ 0.6 ng/mL | ≤ 6 ng/mL | ≤ 6 ng/mL | ≤ 6 ng/mL | C[C@@H](O)[C@H]1C(=O)N2C(C(=O)O)=C(S[C@@H]3CC(=O)N(C)C3)[C@H](C)[C@H]12 [Compound 2] | – | –
– | – | – | – | Cc1ncc([N+](=O)[O-])n1CCO [metronidazole] | effective against helicobacter pylori | –
– | – | – | – | C[C@@H](O)[C@H]1C(=O)N2C(C(=O)OCOC(=O)C(C)(C)C)=C(S[C@H]3CNC(=O)C3)[C@H](C)[C@H]12 [Compound 4, pivaloyloxymethyl (1R,5S,6S)-2-[(4R)-2-oxo-4-pyrrolidinylthio]-6-[(1R)-1-hydroxyethyl]-1-methyl-1-carbapen-2-em-3-carboxylate] | – | significant difference (p) vs the control group, viable microbe cell number (CFU/stomach) ([3]; 1 mg/kg): < 0.01; significant difference (p) vs the control group, viable microbe cell number (CFU/stomach) ([3]; 10 mg/kg): < 0.01
– | – | – | – | O=C([O-])CC(O)(CC(=O)[O-])C(=O)[O-].[Bi+3] [bismuth citrate] | effective against helicobacter pylori | –
